Source: the supplement of paper PMC10307832

Experiments:
Assay in all cases: relative viability (nuclei count vs DMSO), 5 days (fraction); higher = more cells survive
Adavosertib + Tozasertib = compound: C=CCn1c(=O)c2cnc(Nc3ccc(N4CCN(C)CC4)cc3)nc2n1-c1cccc(C(C)(C)O)n1 [Adavosertib] + Cc1cc(Nc2cc(N3CCN(C)CC3)nc(Sc3ccc(NC(=O)C4CC4)cc3)n2)n[nH]1 [Tozasertib] (partner 0.1 µM)
Summary of the method: (§1)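 Lung cancer cell lines, seeded in 1536-well plates, were treated the following day by pin tool with a single drug or with five library-drug doses (not always all listed) in √10 steps on top of a fixed anchor-drug dose. Cells were fixed and nuclei stained in one step after 5 days, and nuclei were counted. Relative viability is the nuclei count for treated wells divided by that for vehicle wells, reported as medians of duplicate plates.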

Nelarabine + Navitoclax = compound: COc1nc(N)nc2c1ncn2[C@@H]1O[C@H](CO)[C@@H](O)[C@@H]1O [Nelarabine] + CC1(C)CCC(c2ccc(Cl)cc2)=C(CN2CCN(c3ccc(C(=O)NS(=O)(=O)c4ccc(N[C@H](CCN5CCOCC5)CSc5ccccc5)c(S(=O)(=O)C(F)(F)F)c4)cc3)CC2)C1 [Navitoclax] (partner 0.5 µM)
Summary of the method: as §1

Nelarabine + Crizotinib = compound: COc1nc(N)nc2c1ncn2[C@@H]1O[C@H](CO)[C@@H](O)[C@@H]1O [Nelarabine] + C[C@@H](Oc1cc(-c2cnn(C3CCNCC3)c2)cnc1N)c1c(Cl)ccc(F)c1Cl [Crizotinib] (partner 1 µM)
Summary of the method: as §1

Nelarabine + Pemetrexed = compound: COc1nc(N)nc2c1ncn2[C@@H]1O[C@H](CO)[C@@H](O)[C@@H]1O [Nelarabine] + Nc1nc2[nH]cc(CCc3ccc(C(=O)N[C@@H](CCC(=O)O)C(=O)O)cc3)c2c(=O)[nH]1 [Pemetrexed] (partner 0.2 µM)
Summary of the method: as §1

Cell Line | relative viability (Adavosertib + Tozasertib; first compound 0.01 µM) | relative viability (Adavosertib + Tozasertib; first compound 0.03162 µM) | relative viability (Adavosertib + Tozasertib; first compound 0.1 µM) | relative viability (Adavosertib + Tozasertib; first compound 0.3162 µM) | relative viability (Nelarabine + Navitoclax; first compound 0.01 µM) | relative viability (Nelarabine + Navitoclax; first compound 0.03162 µM) | relative viability (Nelarabine + Navitoclax; first compound 0.3162 µM) | relative viability (Nelarabine + Navitoclax; first compound 1 µM) | relative viability (Nelarabine + Crizotinib; first compound 0.01 µM) | relative viability (Nelarabine + Crizotinib; first compound 0.03162 µM) | relative viability (Nelarabine + Crizotinib; first compound 0.3162 µM) | relative viability (Nelarabine + Crizotinib; first compound 1 µM) | relative viability (Nelarabine + Pemetrexed; first compound 0.01 µM) | relative viability (Nelarabine + Pemetrexed; first compound 0.03162 µM) | relative viability (Nelarabine + Pemetrexed; first compound 0.3162 µM) | relative viability (Nelarabine + Pemetrexed; first compound 1 µM) | relative viability (Nelarabine + Navitoclax; first compound 0.1 µM) | relative viability (Nelarabine + Crizotinib; first compound 0.1 µM) | relative viability (Nelarabine + Pemetrexed; first compound 0.1 µM)
NCI-H3122 | 0.414 | 0.383 | 0.462 | 0.469 | 1.04 | 0.668 | 1.04 | 1.05 | 0.265 | 0.197 | 0.301 | 0.268 | 0.194 | 0.18 | 0.204 | 0.195 | – | – | –
LXF-289 | 0.174 | 0.192 | 0.205 | 0.261 | 1.12 | 0.882 | 1 | 0.908 | 0.893 | 0.779 | 0.896 | 0.781 | 1 | 0.833 | 0.973 | 0.906 | 0.98 | 0.804 | 0.866
NCI-H2126 | 0.808 | 0.834 | 0.863 | 0.924 | 0.869 | 0.748 | 0.816 | 0.743 | 1.19 | 1.07 | 1.05 | 0.998 | 0.879 | 0.757 | 0.765 | 0.807 | 0.786 | 1.01 | 0.692
HOP-62 | 0.356 | 0.409 | 0.414 | 0.329 | 1.25 | 1 | 1.08 | 1.11 | 1.08 | 0.933 | 0.91 | 0.831 | 0.412 | 0.347 | 0.318 | 0.33 | 1.06 | 0.998 | 0.307
NCI-H647 | 0.273 | 0.276 | 0.245 | 0.317 | 1.6 | 1.01 | 1.43 | 1.07 | 1.37 | 1.22 | 1.41 | 1.14 | 0.17 | 0.162 | 0.194 | 0.217 | 1.13 | 1.13 | 0.154
NCI-H2170 | 0.675 | 0.683 | 0.688 | 0.735 | 0.564 | 0.627 | 0.678 | 0.552 | 1.47 | 1.01 | 1.35 | 1.26 | 0.269 | 0.262 | 0.318 | 0.303 | 0.65 | 1.24 | 0.228
NCI-H2023 | 0.453 | 0.391 | 0.414 | 0.266 | 1.26 | 1.17 | 1.07 | 1.01 | 0.831 | 0.672 | 0.578 | 0.605 | 0.353 | 0.365 | 0.244 | 0.228 | 1.03 | 0.59 | 0.268
SW 1573 | 0.221 | 0.234 | 0.192 | 0.17 | 1.14 | 1.26 | 0.98 | 1.03 | 0.788 | 0.769 | 0.733 | 0.717 | 0.957 | 0.908 | 0.838 | 0.877 | 1.02 | 0.745 | 1.01
